Assay results taken from US8759334B2, “Compounds useful for the treatment of metabolic and inflammatory diseases” (Galapagos NV, priority 2011, dated 2014).

Each compound was assayed against T1, GPR43 (Homo sapiens, UniProt O15552) (assay: Calcium mobilization assay with probenecid). Conditions: GPR43 stably expressing cells; triggered with sodium acetate at EC80; 2.5 mM probenecid; read-out: GPR43 assay with probenicid IC50.
T1 construct: expressed in transfected cells
T1 sequence (O15552 1-330): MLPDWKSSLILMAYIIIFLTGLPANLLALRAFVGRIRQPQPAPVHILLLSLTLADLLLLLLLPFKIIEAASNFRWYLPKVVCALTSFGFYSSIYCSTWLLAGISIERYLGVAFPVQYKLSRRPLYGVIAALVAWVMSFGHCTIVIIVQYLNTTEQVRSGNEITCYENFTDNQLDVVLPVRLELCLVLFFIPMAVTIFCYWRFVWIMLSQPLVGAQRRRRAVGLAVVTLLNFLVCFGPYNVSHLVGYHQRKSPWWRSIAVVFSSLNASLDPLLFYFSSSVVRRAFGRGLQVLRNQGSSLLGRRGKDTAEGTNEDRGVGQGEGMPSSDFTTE
Format: cell-based
Experimental: The following assay can be used for determination of GPR43 activation. The assay measures intracellular calcium release induced by activation of GPR43. On day 1, GPR43 stably expressing cells were detached with mild trypsinization (Trypsin, 0.25% with EDTA 4Na, 5× diluted in PBS) centrifuged at 1000 rpm for 5 min and resuspended at 6.000 cells/25 […] medium (DMEM supplemented with 10% FBS, 10 μg/mL puromycin and 1% Pen/Strep). The cells were distributed in poly-D-lysine coated 384 well plates (black with clear bottom, 25 μL/well) and incubated overnight at 37° C. 10% CO2.
On day 2, 25 μL of a fluorescent Ca^2+ indicator (Calcium 4 assay; Molecular Devices) supplemented with 2.5 mM probenecid was added on top of the cells and incubated for 2 h at 37° C. Subsequently, compounds at increasing concentration (10 μL/well) were added to the plate and incubated for 15 min at 37° C.
To measure agonist activity of the compounds, compound was added to the well and the Ca^2+-flux was measured simultaneously to the […] of compound.

Compound | IC50 [nM]
COC(=O)CCN(Cc1ccc(Cl)cc1)C(=O)C1(C)CCN1C(=O)c1csc2ccccc12 (stereo not drawn) [Compound 151, 3-[[1-(Benzo[b]thiophene-3-carbonyl)-2-methyl-azetidine-2-carbonyl]-(4-chloro-benzyl)-amino]-propionic acid methyl ester] | 101 to 500
CCOC(=O)CCCN(Cc1ccc2cn[nH]c2c1)C(=O)C1(C)CCN1C(=O)Cc1coc2ccccc12 (stereo not drawn) [Compound 152, 4-[[1-(2-Benzofuran-3-yl-acetyl)-2-methyl-azetidine-2-carbonyl]-(1H-indazol-6-ylmethyl)-amino]-butyric acid ethyl ester] | 101 to 500
CCOC(=O)CCCN(Cc1ccc2cn[nH]c2c1)C(=O)C1(C)CCN1C(=O)c1csc2ccccc12 (stereo not drawn) [Compound 153, 4-[[1-(Benzo[b]thiophene-3-carbonyl)-2-methyl-azetidine-2-carbonyl]-(1H-indazol-6-ylmethyl)-amino]-butyric acid ethyl ester] | 101 to 500
CC1(C(=O)N(CCC(=O)O)Cc2ccc(Cl)cc2)CCN1C(=O)Cc1coc2ccccc12 (stereo not drawn) [Compound 154, 3-[[1-(2-Benzofuran-3-yl-acetyl)-2-methyl-azetidine-2-carbonyl]-(4-chloro-benzyl)-amino]-propionic acid] | > 1000
CC1(C(=O)N(CCCC(=O)O)Cc2ccc3cn[nH]c3c2)CCN1C(=O)Cc1coc2ccccc12 (stereo not drawn) [Compound 156, 4-[[1-(2-Benzofuran-3-yl-acetyl)-2-methyl-azetidine-2-carbonyl]-(1H-indazol-6-ylmethyl)-amino]-butyric acid] | 101 to 500
CC1(C(=O)N(CCCC(N)=O)Cc2ccc(Cl)cc2)CCN1C(=O)c1csc2ccccc12 (stereo not drawn) [Compound 158, 1-(Benzo[b]thiophene-3-carbonyl)-2-methyl-azetidine-2-carboxylic acid (3-carbamoyl-propyl)-(4-chloro-benzyl)-amide] | 101 to 500
Cc1cc(C)cc(CC(=O)N2CCC2(C)C(=O)N(CCCC(=O)O)Cc2ccc(C(F)(F)F)cc2)c1 (stereo not drawn) [Compound 159, 4-[{1-[2-(3,5-Dimethyl-phenyl)-acetyl]-2-methyl-azetidine-2-carbonyl}-(4-trifluoromethyl-benzyl)-amino]-butyric acid] | 501 to 1000
CC1(C(=O)N(CCCC(=O)O)Cc2ccc(C(F)(F)F)cc2)CCN1C(=O)Cc1coc2ccccc12 (stereo not drawn) [Compound 160, 4-[[1-(2-Benzofuran-3-yl-acetyl)-2-methyl-azetidine-2-carbonyl]-(4-trifluoromethyl-benzyl)-amino]-butyric acid] | 101 to 500
Cc1cc(C)cc(CC(=O)N2CCC2(C)C(=O)N(CCCC(=O)O)Cc2cccc(Cl)c2)c1 (stereo not drawn) [Compound 161, 4-((3-Chloro-benzyl)-{1-[2-(3,5-dimethyl-phenyl)-acetyl]-2-methyl-azetidine-2-carbonyl}-amino)-butyric acid] | > 1000
Cc1cc(C)cc(CC(=O)N2CCC2(C)C(=O)N(CCCC(=O)O)Cc2ccc3ccoc3c2)c1 (stereo not drawn) [Compound 162, 4-(Benzofuran-6-ylmethyl-{1-[2-(3,5-dimethyl-phenyl)-acetyl]-2-methyl-azetidine-2-carbonyl}-amino)-butyric acid] | 501 to 1000
CC1(C(=O)N(CCCC(=O)O)Cc2ccc3ccoc3c2)CCN1C(=O)c1csc2ccccc12 (stereo not drawn) [Compound 163, 4-{[1-(Benzo[b]thiophene-3-carbonyl)-2-methyl-azetidine-2-carbonyl]-benzofuran-6-ylmethyl-amino}-butyric acid] | 101 to 500
CC1(C(=O)N(CCCC(=O)O)Cc2ccc3ccoc3c2)CCN1C(=O)Cc1coc2ccccc12 (stereo not drawn) [Compound 164, 4-{[1-(2-Benzofuran-3-yl-acetyl)-2-methyl-azetidine-2-carbonyl]-benzofuran-6-ylmethyl-amino}-butyric acid] | 101 to 500
CCOC(=O)CCCN(Cc1ccc(C(F)(F)F)cc1)C(=O)C1(C)CCN1C(=O)Cc1cc(C)cc(C)c1 (stereo not drawn) [Compound 165, 4-[{1-[2-(3,5-Dimethyl-phenyl)-acetyl]-2-methyl-azetidine-2-carbonyl}-(4-trifluoromethyl-benzyl)-amino]-butyric acid ethyl ester] | 501 to 1000
CC1(C(=O)N(CCCC(N)=O)Cc2ccc(Cl)cc2)CCN1C(=O)Cc1coc2ccccc12 (stereo not drawn) [Compound 166, 1-(2-Benzofuran-3-yl-acetyl)-2-methyl-azetidine-2-carboxylic acid (3-carbamoyl-propyl)-(4-chloro-benzyl)-amide] | 101 to 500
CCOC(=O)CCCN(Cc1ccc(C(F)(F)F)cc1)C(=O)C1(C)CCN1C(=O)Cc1coc2ccccc12 (stereo not drawn) [Compound 167, 4-[[1-(2-Benzofuran-3-yl-acetyl)-2-methyl-azetidine-2-carbonyl]-(4-trifluoromethyl-benzyl)-amino]-butyric acid ethyl ester] | > 1000
COc1ccc(CNS(=O)(=O)CCCN(Cc2ccc(Cl)cc2)C(=O)C2(C)CCN2C(=O)Cc2cc(C)cc(C)c2)c(OC)c1 (stereo not drawn) [Compound 168, 1-[2-(3,5-Dimethyl-phenyl)-acetyl]-2-methyl-azetidine-2-carboxylic acid (4-chloro-benzyl)-[3-(2,4-dimethoxy-benzylsulfamoyl)-propyl]-amide] | > 1000
CC1(C(=O)N(CCC(=O)O)Cc2cccc(Cl)c2)CCN1C(=O)Cc1csc2ccccc12 (stereo not drawn) [Compound 170, 3-[[1-(2-Benzo[b]thiophen-3-yl-acetyl)-2-methyl-azetidine-2-carbonyl]-(3-chloro-benzyl)-amino]-propionic acid] | 101 to 500
Cc1cc(C)cc(CC(=O)N2CCC2(C)C(=O)N(CCCS(N)(=O)=O)Cc2ccc(Cl)cc2)c1 (stereo not drawn) [Compound 171, 1-[2-(3,5-Dimethyl-phenyl)-acetyl]-2-methyl-azetidine-2-carboxylic acid (4-chloro-benzyl)-(3-sulfamoyl-propyl)-amide] | 101 to 500
COC(=O)CCN(Cc1cccc(Cl)c1)C(=O)C1(C)CCN1C(=O)c1csc2ccccc12 (stereo not drawn) [Compound 172, 3-[[1-(Benzo[b]thiophene-3-carbonyl)-2-methyl-azetidine-2-carbonyl]-(3-chloro-benzyl)-amino]-propionic acid methyl ester] | 101 to 500
COC(=O)CCN(Cc1cccc(Cl)c1)C(=O)C1(C)CCN1C(=O)Cc1csc2ccccc12 (stereo not drawn) [Compound 173, 3-[[1-(2-Benzo[b]thiophen-3-yl-acetyl)-2-methyl-azetidine-2-carbonyl]-(3-chloro-benzyl)-amino]-propionic acid methyl ester] | 101 to 500
CNS(=O)(=O)CCCN(Cc1ccc(Cl)cc1)C(=O)C1(C)CCN1C(=O)Cc1cc(C)cc(C)c1 (stereo not drawn) [Compound 174, 1-[2-(3,5-Dimethyl-phenyl)-acetyl]-2-methyl-azetidine-2-carboxylic acid (4-chloro-benzyl)-(3-methylsulfamoyl-propyl)-amide] | 101 to 500
COC(=O)CCN(Cc1ccc2cn[nH]c2c1)C(=O)C1(C)CCN1C(=O)Cc1csc2ccccc12 (stereo not drawn) [Compound 175, 3-[[1-(2-Benzo[b]thiophen-3-yl-acetyl)-2-methyl-azetidine-2-carbonyl]-(1H-indazol-6-ylmethyl)-amino]-propionic acid methyl ester] | 0.01 to 100
CC1(C(=O)N(CCC(=O)O)Cc2ccc3cn[nH]c3c2)CCN1C(=O)Cc1csc2ccccc12 (stereo not drawn) [Compound 176, 3-[[1-(2-Benzo[b]thiophen-3-yl-acetyl)-2-methyl-azetidine-2-carbonyl]-(1H-indazol-6-ylmethyl)-amino]-propionic acid] | 101 to 500
CC1(C(=O)N(CCCC(=O)O)Cc2ccn3ccnc3c2)CCN1C(=O)Cc1csc2ccccc12 (stereo not drawn) [Compound 177, 4-{[1-(2-Benzo[b]thiophen-3-yl-acetyl)-2-methyl-azetidine-2-carbonyl]-imidazo[1,2-a]pyridin-7-ylmethyl-amino}-butyric acid] | > 1000
COc1ccc(CNS(=O)(=O)CCCN(Cc2ccc(Cl)cc2)C(=O)C2(C)CCN2C(=O)Cc2csc3ccccc23)c(OC)c1 (stereo not drawn) [Compound 178, 1-(2-Benzo[b]thiophen-3-yl-acetyl)-2-methyl-azetidine-2-carboxylic acid (4-chloro-benzyl)-[3-(2,4-dimethoxy-benzylsulfamoyl)-propyl]-amide] | > 1000
Cc1cc(C)cc(CC(=O)N2CCC2(C)C(=O)N(CCS(=O)(=O)N2CCOCC2)Cc2ccc(Cl)cc2)c1 (stereo not drawn) [Compound 179, 1-[2-(3,5-Dimethyl-phenyl)-acetyl]-2-methyl-azetidine-2-carboxylic acid (4-chloro-benzyl)-[2-(morpholine-4-sulfonyl)-ethyl]-amide] | > 1000
Cc1cc(C)cc(CC(=O)N2CCC2(C)C(=O)N(CCCS(=O)(=O)N2CCN(C)CC2)Cc2ccc(Cl)cc2)c1 (stereo not drawn) [Compound 180, 1-[2-(3,5-Dimethyl-phenyl)-acetyl]-2-methyl-azetidine-2-carboxylic acid (4-chloro-benzyl)-[3-(4-methyl-piperazine-1-sulfonyl)-propyl]-amide] | 501 to 1000
